According to patent US20080009416A1, “THIAZOLIUM COMPOUNDS AND USES THEREOF” (Mycosol, Inc., priority 2004, published 2008):

Experiments:
[1] = system: male Lewis rats; details: intrapleural with carrageenan, 4 hours
Method: Acute Anti-Inflammatory Activity in the 4HR Carrageenan Pleurisy Assay in Rats
The Acute Local Carrageenan Pleuritis Assay in Rats is an in vivo model to determine local acute anti-inflammatory activity of compounds based on inhibition of edema formation and neutrophil mobilization into the pleural cavity. In this assay, male Lewis rats of approximately 200 gms were utilized. A carrageenan solution (400 μg/ml) was prepared in water. The experimental compounds were mixed into the carrageenan solution. The carrageenan +/− compounds was injected intrapleurally 0.25 cc/rat. The rats were sacrificed four hours later. The pleural cavity was opened and measured and the exudate extracted. The pleural cavity was washed with 5 cc EDTA solution to capture pleural cells. The total WBCs in the wash were counted and recording. Next the compound inhibition of exudate volume and inflammatory cell influx wash determined. Every experiment included a positive (prednisolone) and negative control group.

[2] = system: Alternaria solani; experiment: Anti-Fungal Activity in Plant Relevant Molds In Vitro Microtitre Test; format: cell-based; details: Alternaria solani (Potato); 18° C., 7 days; growth reduced by at least 90% vs control, OD 405 nm
Method: (§1) Compounds III, IV and V were prepared and were subjected to Anti-Fungal Activity in Plant Relevant Molds In Vitro Microtitre Tests.
(§2) A stock solution of each compound was prepared in DMSO at a concentration of 10,000 ppm a.i. Further dilutions were prepared with water. The test was conducted at the following concentrations: 125, 31, 8, […], 0.5 and 0.125 ppm a.i. Spore suspensions of the fungi were prepared. The test was conducted in microtiter plates and for each fungus and each concentration, 3 wells were prepared. Incubation of the inoculated plates was carried out at 18° C. for 7 days. After this time, the optical density of the mycelium developed in each well was measured at 405 nm.
(§3) The data produced allowed an assessment of the IC 90 value (the concentration at which the fungal growth was reduced by at least 90% compared to the control).

[3] = system: Botrytis cinerea; experiment: as above; format: cell-based; details: Botrytis cinerea (Vegetable); 18° C., 7 days; growth reduced by at least 90% vs control, OD 405 nm
Method: as §1, §2, §3

[4] = system: Cochliobolus mijabeanus; experiment: as above; format: cell-based; details: Cochliobolus mijabeanus (Corn); 18° C., 7 days; growth reduced by at least 90% vs control, OD 405 nm
Method: as §1, §2, §3

[5] = system: Colletotrichum lagenarium; experiment: as above; format: cell-based; details: Colletotrichum lagenarium (Mellons); 18° C., 7 days; growth reduced by at least 90% vs control, OD 405 nm
Method: as §1, §2, §3

[6] = system: Fusarium culmorum; experiment: as above; format: cell-based; details: Fusarium culmorum (Wheat Head); 18° C., 7 days; growth reduced by at least 90% vs control, OD 405 nm
Method: as §1, §2, §3

[7] = system: Pyrenophora teres; experiment: as above; format: cell-based; details: Pyrenophora teres (Barley); 18° C., 7 days; growth reduced by at least 90% vs control, OD 405 nm
Method: as §1, §2, §3

[8] = system: Rhizoctonia solani; experiment: as above; format: cell-based; details: Rhizoctonia solani (Rice Sheath); 18° C., 7 days; growth reduced by at least 90% vs control, OD 405 nm
Method: as §1, §2, §3

[9] = system: Septonia tritici; experiment: as above; format: cell-based; details: Septonia tritici (Wheat Leaf); 18° C., 7 days; growth reduced by at least 90% vs control, OD 405 nm
Method: as §1, §2, §3

[10] = system: Phytophthora infestans; format: cell-based; details: Phytophthora infestans (Tomato); 18° C., 7 days; growth reduced by at least 90% vs control, OD 405 nm
[11] = system: Pyricularia oryzae; format: cell-based; details: Pyricularia oryzae (Rice); 18° C., 7 days; growth reduced by at least 90% vs control, OD 405 nm

| SMILES | Acute Anti-inflammatory Activity in Rats ED50 [1] [mg/rat] | IC90 [2] [ppm] | IC90 [3] [ppm] | IC90 [4] [ppm] | IC90 [5] [ppm] | IC90 [6] [ppm] | IC90 [7] [ppm] | IC90 [8] [ppm] | IC90 [9] [ppm] | IC90 [10] [ppm] | IC90 [11] [ppm] |
| --- | --- | --- | --- | --- | --- | --- | --- | --- | --- | --- | --- |
| CC[n+]1c(-c2ccc(-c3ccccc3)cc2)csc1C=Cc1ccc(N2CCCC2)cc1.[I-] [4-(4-biphenyl)-3-ethyl-2-[(4-pyrrolidino)styryl]thiazolium iodide] | 0.001 |  |  |  |  |  |  |  |  |  |  |
| CCOc1ccc(-c2csc(C=Cc3ccc(N(CC)CC)cc3)[n+]2C)cc1.[I-] [2-(4′-diethylaminostyryl)-4-(4″-ethoxyphenyl)-3-methyl-thiazolium iodide] | 0.001 |  |  |  |  |  |  |  |  |  |  |
| CCN(CC)c1ccc(C=Cc2scc(-c3ccc(CC(C)C)cc3)[n+]2C)cc1.[I-] [2-[2-(4-diethylamino-phenyl)vinyl]-4-(4-isobutyl-phenyl)-3-methyl-thiazolium iodide] | 0.0003 |  |  |  |  |  |  |  |  |  |  |
| Cc1cc(-c2csc(/C=C/c3ccc(N(C)C)cc3)[n+]2C)c(C)c(C)c1C.[I-] [Formula V, E-2-(N,N′-dimethylaminostyryl)-3-methyl-4-(2,3,4,5-tetramethylphenyl)thiazolium iodide] |  | 8 | 2 | 8 | 8 | 31 | 8 | 8 | 2 | 2 | 8 |
| Cc1scc(-c2ccc(C3CCCCC3)cc2)[n+]1C.[I-] [2,3-dimethyl-4(p-cyclohexylphenyl) thiazolium iodide] | 0.02 |  |  |  |  |  |  |  |  |  |  |
| CC(C)c1ccc(C(C)C)c(-c2csc(/C=C/c3ccc(N(C)C)cc3)[n+]2C)c1.[I-] [Formula IV, E-2-(N,N′-dimethylaminostyryl)-3-methyl-4-(2,5-diisopropylphenyl)thiazolium iodide] | 0.0002 | 8 | 2 | 8 | 8 | 125 | 8 | 8 | 2 | 8 | 8 |
| CC(C)Cc1ccc(-c2csc(C=Cc3ccc(N4CCCC4)cc3)[n+]2C)cc1.[I-] [4-(4-isobutylphenyl)-3-methyl-2-[2-(4-pyrrolidin-1-yl-phenyl)vinyl]-thiazolium iodide] | 0.0004 |  |  |  |  |  |  |  |  |  |  |
| CCN(CC)c1ccc(/C=C/c2scc(-c3ccc(OC)cc3)[n+]2C)cc1.[I-] [Formula III] |  | 31 | 2 | 2 | 8 | 31 | 8 | 8 | 2 | 2 | 8 |
